Measurements: US11732264B2, “Compositions and methods for treating COVID-19” (Vast Sea Biotechnology, Inc., priority 2020, dated 2023)
Where two headings read alike, the source gives them in different places. d = 2'-deoxy (DNA); r = 2'-OH (RNA)

Key:
Format in all cases: cell-based
[1] = system: SARS-CoV-2 N-protein; conditions: HSAEC, qRT-PCR
[2] = system: SARS-CoV-2 N-protein; conditions: HBTEC, qRT-PCR
[3] = system: SARS-CoV-2 N-protein; conditions: HNEpC, qRT-PCR
[4] = oligos 24-48 hours, with lipofectamine
[5] = oligos 24-48 hours, lipofectamine or Arginine not stated at the result

Row | Substance | down-regulation of SARS-CoV-2 N-protein expression [1, 4] | down-regulation of SARS-CoV-2 N-protein expression [2, 4] | down-regulation of SARS-CoV-2 N-protein expression [3, 5] | down-regulation of SARS-CoV-2 N-protein expression ([1]; oligo 24-48 hours, without any reagents) | down-regulation of SARS-CoV-2 N-protein expression ([2]; without any reagents) | down-regulation of SARS-CoV-2 N-protein expression ([3]; without any reagents)
1 | TGTTAATTGGAACGCCTTGTC (Cy3 label, position not given here) [VS_ASO_2-Cy3] | about 1.5 fold | about 6 fold | about 15 fold |  |  | 
2 | TGTTAATTGGAACGCCTTGTC (FANA modified, pattern not given here, FITC label) [VS_ASO_1-FANA-FITC] |  |  |  | about 6 fold | about 8 fold | about 350 fold
3 | VS_DsiRNA-Cy5: DsiRNA SEQ ID NOs: 23 & 24, target N-protein, Cy5 labeled (chain 1 AAACUAAAAUGUCUGAUAAUGGACC; chain 2 GGUCCAUUAUCAGACAUUUUAGUUUGU; chain 1: sugars from the 5' end r23 d2, backbone not given here; chain 2: chemistry not given here; Cy5 label) | about 5 fold | about 4 fold | about 90 fold |  |  | 
